This is an account of results in ChEMBL document CHEMBL5505990, “Novel aroyl guanidine anti-trypanosomal compounds that exert opposing effects on parasite energy metabolism” (Eur J Med Chem, 2024).

Activity calls are given as the source filed them. No cut-off for these calls is given here.

The subject of data set [1] is Trypanosoma brucei brucei. Briefly: Anti-trypanosomal activity against Trypanosoma brucei brucei incubated for 48 hrs by alamar blue assay. The class given is functional, organism-based. On the technique in general: The colour change of resazurin is a common sign of viable cells or microbes.
Data set [2] in a line: Selectivity ratio of IC50 for HEK293 cells to IC50 for Trypanosoma brucei brucei. The class given is toxicity. The note with it: human, read-out: Ratio IC50.
In data set [3] the test system is Trypanosoma brucei brucei. The data set can be described thus: Disruption of nucleotide metabolism in bloodstream Trypanosoma brucei brucei 427 assessed as accumulation of NDP at 1 uM incubated for 5 hrs. It is filed as functional, organism-based.
Data set [4] relates to Trypanosoma brucei brucei. Briefly: Disruption of nucleotide metabolism in bloodstream Trypanosoma brucei brucei 427 assessed as accumulation of NMP at 1 uM incubated for 5 hrs. The class given is functional, organism-based.
The test system of data set [5] is Trypanosoma brucei brucei. Briefly: Disruption of nucleotide metabolism in bloodstream Trypanosoma brucei brucei 427 assessed as accumulation of nucleosides at 1 uM incubated for 5 hrs. It is filed as functional, organism-based.
Data set [6] concerns Trypanosoma brucei brucei. Briefly: Disruption of nucleotide metabolism in bloodstream Trypanosoma brucei brucei 427 assessed as accumulation of purine/pyrimidine base forms at 1 uM incubated for 5 hrs. It is filed as functional, organism-based.
Data set [7] concerns Trypanosoma brucei brucei. Briefly: Disruption of nucleotide metabolism in bloodstream Trypanosoma brucei brucei 427 assessed as depletion of NTP at 1 uM incubated for 5 hrs. The class given is functional, organism-based.
For data set [8], the system named is Trypanosoma brucei brucei. Briefly: Induction of glycolysis in bloodstream Trypanosoma brucei brucei 427 assessed as increase in pyruvate level at 1 uM incubated for 5 hrs. It is filed as functional.
In data set [9] the test system is Trypanosoma brucei brucei. The data set can be described thus: Induction of glycolysis in bloodstream Trypanosoma brucei brucei 427 assessed as increase in glycerol level at 1 uM incubated for 5 hrs. The class given is functional.
Data set [10] has as its system Trypanosoma brucei brucei. The data set can be described thus: Induction of glycolysis in bloodstream Trypanosoma brucei brucei 427 assessed as increase in succinate level at 1 uM incubated for 5 hrs. It is filed as functional.
Data set [11] concerns Trypanosoma brucei brucei. The data set can be described thus: Downregulation of 6-phosphogluconate level in bloodstream Trypanosoma brucei brucei 427 assessed as increase in pyruvate level at 1 uM incubated for 5 hrs. It is filed as functional.
For data set [12], the system named is Trypanosoma brucei brucei. Briefly: Downregulation of NADPH level in bloodstream Trypanosoma brucei brucei 427 assessed as increase in pyruvate level at 1 uM incubated for 5 hrs. The class given is functional.
The subject of data set [13] is Trypanosoma brucei brucei. Briefly: Upregulation of carnitine to acetyl-carnitine ratio in bloodstream Trypanosoma brucei brucei 427 assessed as increase in pyruvate level at 1 uM incubated for 5 hrs. The class given is functional.
Data set [14] relates to Trypanosoma brucei brucei. The data set can be described thus: Upregulation of glycolytic flux in bloodstream Trypanosoma brucei brucei 427 assessed as increase in pyruvate level at 1 uM incubated for 5 hrs. The class given is functional.
Data set [15] concerns Trypanosoma brucei brucei. The data set can be described thus: Effect on free CoA level in bloodstream Trypanosoma brucei brucei 427 assessed as increase in pyruvate level at 1 uM incubated for 5 hrs. The class given is functional.
The test system of data set [16] is Trypanosoma brucei brucei. The data set can be described thus: Effect on free carnitine level in bloodstream Trypanosoma brucei brucei 427 assessed as increase in pyruvate level at 1 uM incubated for 5 hrs. It is filed as functional.
The test system of data set [17] is Trypanosoma brucei brucei. Briefly: Effect on acetyl-CoA level in bloodstream Trypanosoma brucei brucei 427 assessed as increase in pyruvate level at 1 uM incubated for 5 hrs. The class given is functional.
The subject of data set [18] is Trypanosoma brucei brucei. The data set can be described thus: Effect on palmitoyl-CoA level in bloodstream Trypanosoma brucei brucei 427 assessed as increase in pyruvate level at 1 uM incubated for 5 hrs. It is filed as functional.
The test system of data set [19] is Trypanosoma brucei brucei. The data set can be described thus: Effect on stearoyl-CoA level in bloodstream Trypanosoma brucei brucei 427 assessed as increase in pyruvate level at 1 uM incubated for 5 hrs. It is filed as functional.
The test system of data set [20] is Trypanosoma brucei brucei. Briefly: Effect on acetyl-carnitine level in bloodstream Trypanosoma brucei brucei 427 assessed as increase in pyruvate level at 1 uM incubated for 5 hrs. The class given is functional.
For data set [21], the system named is Trypanosoma brucei brucei. Briefly: Anti-trypanosomal activity against Trypanosoma brucei brucei at 10 uM relative to control. The class given is functional.
Data set [22] in a line: Cytotoxicity against HEK293 cells assessed as inhibition of cell viability at 83 uM relative to control. The class given is toxicity, cell-based. The note with it: human, read-out: INH.
Data set [23] has as its system Trypanosoma brucei brucei. Briefly: Anti-trypanosomal activity against Trypanosoma brucei brucei at 42 uM relative to control. It is filed as functional.
The test system of data set [24] is Trypanosoma brucei brucei. Briefly: Anti-trypanosomal activity against Trypanosoma brucei brucei. It is filed as functional, organism-based.
The nature of data set [25]: Cytotoxicity against HEK293 cells. It is filed as toxicity, cell-based. The conditions noted are these: human.
Data set [26] relates to Trypanosoma brucei brucei. Briefly: Opposing effect on metabolism in bloodstream Trypanosoma brucei brucei 427 at 1 uM incubated for 5 hrs by LC-MS based principal component analysis. It is filed as functional, organism-based.
Data set [27] concerns Trypanosoma brucei brucei. Briefly: Effect on nucleotide metabolism in bloodstream Trypanosoma brucei brucei 427 at 1 uM incubated for 5 hrs by pathway enrichment analysis. The class given is functional.
Data set [28] concerns Trypanosoma brucei brucei. The data set can be described thus: Effect on carbohydrate metabolism in bloodstream Trypanosoma brucei brucei 427 at 1 uM incubated for 5 hrs by pathway enrichment analysis. It is filed as functional.
Data set [29] deals with Trypanosoma brucei brucei. The data set can be described thus: Disruption of nucleotide metabolism in bloodstream Trypanosoma brucei brucei 427 assessed as depletion of GTP at 1 uM incubated for 5 hrs. It is filed as functional, organism-based.
Data set [30] concerns Trypanosoma brucei brucei. Briefly: Disruption of nucleotide metabolism in bloodstream Trypanosoma brucei brucei 427 assessed as depletion of UTP at 1 uM incubated for 5 hrs. It is filed as functional, organism-based.
Data set [31] deals with Trypanosoma brucei brucei. The data set can be described thus: Disruption of nucleotide metabolism in bloodstream Trypanosoma brucei brucei 427 assessed as depletion of CTP at 1 uM incubated for 5 hrs. The class given is functional, organism-based.
Data set [32] deals with Trypanosoma brucei brucei. The data set can be described thus: Disruption of nucleotide metabolism in bloodstream Trypanosoma brucei brucei 427 assessed as depletion of deoxy-ATP at 1 uM incubated for 5 hrs. The class given is functional, organism-based.
Data set [33] deals with Trypanosoma brucei brucei. Briefly: Disruption of nucleotide metabolism in bloodstream Trypanosoma brucei brucei 427 assessed as depletion of deoxy-GTP at 1 uM incubated for 5 hrs. The class given is functional, organism-based.
Data set [34] relates to Trypanosoma brucei brucei. The data set can be described thus: Disruption of nucleotide metabolism in bloodstream Trypanosoma brucei brucei 427 assessed as depletion of deoxy-UTP at 1 uM incubated for 5 hrs. It is filed as functional, organism-based.
Data set [35] has as its system Trypanosoma brucei brucei. Briefly: Disruption of nucleotide metabolism in bloodstream Trypanosoma brucei brucei 427 assessed as depletion of deoxy-CTP at 1 uM incubated for 5 hrs. It is filed as functional, organism-based.
For data set [36], the system named is Trypanosoma brucei brucei. The data set can be described thus: Disruption of nucleotide metabolism in bloodstream Trypanosoma brucei brucei 427 assessed as depletion of ATP at 1 uM incubated for 5 hrs relative to control. It is filed as functional.
For data set [37], the system named is Trypanosoma brucei brucei. Briefly: Disruption of nucleotide metabolism in bloodstream Trypanosoma brucei brucei 427 assessed as depletion of ATP at 1 uM incubated for 5 hrs. It is filed as functional, organism-based.
Data set [38] concerns Trypanosoma brucei brucei. The data set can be described thus: Disruption of nucleotide metabolism in bloodstream Trypanosoma brucei brucei 427 assessed as fold increase in AMP at 1 uM incubated for 5 hrs. The class given is functional.
The subject of data set [39] is Trypanosoma brucei brucei. The data set can be described thus: Disruption of nucleotide metabolism in bloodstream Trypanosoma brucei brucei 427 assessed as accumulation of AMP at 1 uM incubated for 5 hrs. The class given is functional, organism-based.

For the molecule `CCc1ccccc1/N=C(\NCCN1CCOCC1)NC(=O)c1ccccc1`, half-maximal inhibition in data set [1] (IC50) required 2.6 µM. In addition, the selectivity ratio in [2] was at least 29. In addition, the outcome in data set [3], in [4], in [5], in data set [6], in data set [7] and in data set [8] was inactive. Also, the result in data set [9], in data set [10], in data set [11], in [12], in data set [13] and in data set [14] was inactive. The result in [15], in data set [16], in data set [18], in data set [19] and in data set [20] was inactive. The result in [17] was Active.

Take `CCc1ccccc1/N=C(\NCCN1CCOCC1)NC(=O)c1cccc(Cl)c1`: in [21], the inhibition (usually the relative decrease from the control value, in per cent) at 10 µM was determined as 87%. The cytotoxicity at 83 µM in data set [22] worked out at 67%. Also, in [23], testing at 42 µM gave an inhibition of 68%.

Turning to `Cc1cc(Br)ccc1/N=C(\NCCN1CCOCC1)NC(=O)c1ccccc1`, in data set [2], the selectivity ratio is over 33. Besides, the IC50 (as a rule, the point on the concentration scale where inhibition reaches its midpoint) in data set [24] is 2.5 µM; in [25], over 83 µM. In addition, the outcome in data set [26], in data set [27], in data set [28], in data set [29], in [30] and in [31] was Active. Moreover, the result in [32], in [33], in data set [34], in data set [35], in [3] and in [4] was Active. Moreover, the result in data set [5], in data set [6], in data set [8], in [9], in [10] and in [11] was Active. Moreover, the result in data set [12], in data set [13], in data set [14], in data set [15], in data set [16] and in data set [18] was Active. For the same molecule, the result in data set [19] and in data set [20] was Active. For the same molecule, the Activity in data set [36] came to 25%. For the same molecule, the outcome in data set [17] was inactive.

On to `Cc1ccccc1/N=C(\NCCN1CCOCC1)NC(=O)c1ccccc1`, for which the IC50 in data set [25] is over 83 µM. The same molecule had an inhibition at 10 µM in [21] of 75%. Moreover, the outcome in data set [3], in [4], in data set [5], in [6], in data set [7] and in [8] was inactive. For the same molecule, the result in data set [9], in data set [10], in data set [11], in data set [12], in data set [13] and in [14] was inactive. Moreover, the result in data set [15], in data set [16], in data set [18], in data set [19] and in data set [20] was inactive. The outcome in data set [17] was Active.

With `Cc1ccc(/N=C(\NCCN2CCOCC2)NC(=O)c2ccccc2)c(Cl)c1`, the inhibition at 10 µM in data set [21] was 54%. Moreover, the result in [37], in [29], in data set [30], in data set [31], in data set [32] and in data set [33] was Active. Besides, the result in data set [34], in data set [35], in data set [8], in data set [9], in [10] and in [11] was Active. For the same molecule, the outcome in data set [12], in data set [13], in [14], in data set [15], in data set [16] and in data set [18] was Active. The outcome in [19] and in data set [20] was Active. For the same molecule, the “fold change (FC)” value in data set [38] came out at 7. In addition, in data set [17], the result was inactive.

On to `CCc1ccccc1/N=C(\NCCN1CCOCC1)NC(=O)c1ccc(C)cc1`, for which the selectivity ratio in [2] is over 19. For the same molecule, the IC50 in [24] is 4.4 µM; in data set [25], over 83 µM. In addition, the result in data set [26], in data set [27], in [28] and in data set [17] was Active. In addition, the result in [37], in data set [3], in [4], in data set [5], in data set [6] and in data set [7] was inactive. The result in data set [39], in [8], in [9], in data set [10], in data set [11] and in data set [12] was inactive. Moreover, the outcome in data set [13], in [14], in [15], in data set [16], in data set [18] and in data set [19] was inactive. Further, the outcome in data set [20] was inactive.

Take `CCc1ccccc1/N=C(\NCCN1CCOCC1)NC(=O)c1ccc(F)cc1`: the selectivity ratio in data set [2] amounted to 46. Moreover, the values for the IC50 in data set [24] and in data set [25] were 1.8 µM and over 83 µM, respectively. Besides, the result in data set [3], in [4], in data set [5], in data set [6], in [7] and in [8] was inactive. Further, the result in data set [9], in [10], in [11], in data set [12], in data set [13] and in data set [14] was inactive. Moreover, the result in data set [15], in data set [16], in [18], in [19] and in [20] was inactive. In data set [17], the result was Active.
